PubChem BioAssay (NCI)
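Exposure lasted 48 hours, with cells grown in 96-well plates and compounds tested at five concentrations. Abbreviation: GI50, concentration required for 50% inhibition of growth. The concentration for full growth arrest is given as TGI.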

Experiments:
Test in all cases: NCI anticancer screen, dose series, 48 h
HCT-116 colon = tested on: HCT-116 colon
SW-620 colon = tested on: SW-620 colon
LOX IMVI melanoma = tested on: LOX IMVI melanoma
HL-60(TB) leukemia = tested on: HL-60(TB) leukemia
HCT-15 colon = tested on: HCT-15 colon
M14 melanoma = tested on: M14 melanoma
MOLT-4 leukemia = tested on: MOLT-4 leukemia
MALME-3M melanoma = tested on: MALME-3M melanoma
MDA-MB-468 breast = tested on: MDA-MB-468 breast
HCC-2998 colon = tested on: HCC-2998 colon
BT-549 breast = tested on: BT-549 breast
SF-268 CNS = tested on: SF-268 CNS
NCI-H460 lung = tested on: NCI-H460 lung
SK-MEL-5 melanoma = tested on: SK-MEL-5 melanoma
KM12 colon = tested on: KM12 colon
MDA-MB-231 breast = tested on: MDA-MB-231 breast
PC-3 prostate = tested on: PC-3 prostate
EKVX NSCLC = tested on: EKVX NSCLC
CCRF-CEM leukemia = tested on: CCRF-CEM leukemia
HOP-62 NSCLC = tested on: HOP-62 NSCLC
SF-539 CNS = tested on: SF-539 CNS
ACHN renal = tested on: ACHN renal
CAKI-1 renal = tested on: CAKI-1 renal
RXF 393 renal = tested on: RXF 393 renal
OVCAR-4 ovarian = tested on: OVCAR-4 ovarian
MDA-MB-435 = tested on: MDA-MB-435
UO-31 renal = tested on: UO-31 renal
T-47D breast = tested on: T-47D breast
K-562 leukemia = tested on: K-562 leukemia
A498 renal = tested on: A498 renal
COLO 205 colon = tested on: COLO 205 colon
SK-OV-3 ovarian = tested on: SK-OV-3 ovarian
TK-10 renal = tested on: TK-10 renal
MCF7 breast = tested on: MCF7 breast
NCI-H23 lung = tested on: NCI-H23 lung
OVCAR-3 ovarian = tested on: OVCAR-3 ovarian
SF-295 CNS = tested on: SF-295 CNS
DU-145 prostate = tested on: DU-145 prostate
SK-MEL-28 melanoma = tested on: SK-MEL-28 melanoma
SNB-19 CNS = tested on: SNB-19 CNS
NCI-H522 lung = tested on: NCI-H522 lung
786-0 renal = tested on: 786-0 renal
NCI-H226 lung = tested on: NCI-H226 lung
OVCAR-8 ovarian = tested on: OVCAR-8 ovarian
A549 NSCLC = tested on: A549 NSCLC
UACC-62 melanoma = tested on: UACC-62 melanoma
SR leukemia = tested on: SR leukemia
HT29 colon = tested on: HT29 colon
IGROV1 ovarian = tested on: IGROV1 ovarian
HS 578T breast = tested on: HS 578T breast
UACC-257 melanoma = tested on: UACC-257 melanoma
U251 CNS = tested on: U251 CNS
SN12C renal = tested on: SN12C renal
SK-MEL-2 melanoma = tested on: SK-MEL-2 melanoma
HOP-92 NSCLC = tested on: HOP-92 NSCLC
RPMI-8226 leukemia = tested on: RPMI-8226 leukemia
OVCAR-5 ovarian = tested on: OVCAR-5 ovarian

## COc1ccc2[nH]c(=O)cc(-n3ncc(C(=O)/C=C/c4cc(OC)c(OC)c(OC)c4)c3C)c2c1
HCT-116 colon
  GI50: 7.41 µM
  TGI: 21.7 µM
SW-620 colon
  GI50: 3.54 µM
  TGI: 13.5 µM
LOX IMVI melanoma
  GI50: 2.75 µM
  TGI: 9.83 µM
HL-60(TB) leukemia
  GI50: 3.88 µM
  TGI: 29 µM
HCT-15 colon
  GI50: 3.57 µM
  TGI: 15.7 µM
M14 melanoma
  GI50: 8.64 µM
  TGI: 29.9 µM
MOLT-4 leukemia
  GI50: 3.81 µM
  TGI: 64.9 µM
MALME-3M melanoma
  GI50: 6.82 µM
  TGI: 19.9 µM
MDA-MB-468 breast
  GI50: 2.5 µM
  TGI: 7.3 µM
HCC-2998 colon
  GI50: 11.5 µM
  TGI: 24 µM
BT-549 breast
  GI50: 3.47 µM
  TGI: 13.8 µM
SF-268 CNS
  GI50: 10.4 µM
  TGI: 34.8 µM
NCI-H460 lung
  GI50: 3.28 µM
  TGI: 13.6 µM
SK-MEL-5 melanoma
  GI50: 10.3 µM
  TGI: 22 µM
KM12 colon
  GI50: 13.2 µM
  TGI: 30.1 µM
MDA-MB-231 breast
  GI50: 5.4 µM
  TGI: 18.6 µM
PC-3 prostate
  GI50: 10 µM
  TGI: 38 µM
EKVX NSCLC
  GI50: 5.16 µM
  TGI: 20.1 µM
CCRF-CEM leukemia
  GI50: 2.76 µM
  TGI: 16.8 µM
HOP-62 NSCLC
  GI50: 11.2 µM
  TGI: 26.4 µM
SF-539 CNS
  GI50: 2.68 µM
  TGI: 9.09 µM
ACHN renal
  GI50: 4.33 µM
  TGI: 16.6 µM
CAKI-1 renal
  GI50: 5.23 µM
  TGI: 20 µM
RXF 393 renal
  GI50: 2.79 µM
  TGI: 9.94 µM
OVCAR-4 ovarian
  GI50: 12.4 µM
  TGI: 42.9 µM
MDA-MB-435
  GI50: 3.81 µM
  TGI: 14.1 µM
UO-31 renal
  GI50: 5.62 µM
  TGI: 18.9 µM
T-47D breast
  GI50: 6.59 µM
  TGI: 43.6 µM
K-562 leukemia
  GI50: 3.24 µM
  TGI: > 100 µM
A498 renal
  GI50: 19.1 µM
  TGI: 36.3 µM
COLO 205 colon
  GI50: 4.94 µM
  TGI: 17.2 µM
SK-OV-3 ovarian
  GI50: 12 µM
  TGI: 36.5 µM
TK-10 renal
  GI50: 8.02 µM
  TGI: 20.9 µM
MCF7 breast
  GI50: 3.19 µM
  TGI: 11.9 µM
NCI-H23 lung
  GI50: 3.5 µM
  TGI: 13 µM
OVCAR-3 ovarian
  GI50: 4.04 µM
  TGI: 13.9 µM
SF-295 CNS
  GI50: 4.64 µM
  TGI: 16.6 µM
DU-145 prostate
  GI50: 3.29 µM
  TGI: 10.8 µM
SK-MEL-28 melanoma
  GI50: 5.26 µM
  TGI: 17.4 µM
SNB-19 CNS
  GI50: 11.2 µM
  TGI: 23.4 µM
NCI-H522 lung
  GI50: 3.6 µM
  TGI: 13.3 µM
786-0 renal
  GI50: 11 µM
  TGI: 25.3 µM
NCI-H226 lung
  GI50: 11.1 µM
  TGI: 25.4 µM
OVCAR-8 ovarian
  GI50: 3.46 µM
  TGI: 12.3 µM
A549 NSCLC
  GI50: 11.5 µM
  TGI: 52.2 µM
UACC-62 melanoma
  GI50: 7.17 µM
  TGI: 20.2 µM
SR leukemia
  GI50: 4.2 µM
  TGI: > 100 µM
HT29 colon
  GI50: 3.15 µM
  TGI: 11 µM
IGROV1 ovarian
  GI50: 3.46 µM
  TGI: 13.5 µM
HS 578T breast
  GI50: 8.96 µM
  TGI: 95.2 µM
UACC-257 melanoma
  GI50: 12.5 µM
  TGI: 26.6 µM
U251 CNS
  GI50: 3.91 µM
  TGI: 18.5 µM
SN12C renal
  GI50: 3.59 µM
  TGI: 15.6 µM
SK-MEL-2 melanoma
  GI50: 6.06 µM
  TGI: 18.7 µM
HOP-92 NSCLC
  GI50: 11.4 µM
  TGI: 34.9 µM
RPMI-8226 leukemia
  GI50: 2.91 µM
  TGI: 15 µM
OVCAR-5 ovarian
  GI50: 3.99 µM
  TGI: 15.1 µM
